Reference: US20220117920A1, “N-Aryl Benzenesulfonamides as Protonophores for the Treatment of Cancers, Metabolic Diseases and Traumatic Brain Injury” (University of Kentucky Research Foundation, priority 2019, published 2022)

Columns and labels:
[1] = test system: LS174T cells; assay: ATP analysis (luminescence) in LS174T cells; format: cell-based, human; conditions: 10 mM
Description: (§1) Biochemistry. Western blotting: Cells were lysed in the appropriate volume of lysis buffer: 50 mM HEPES, 100 mM NaCl, 2 mM EDTA, 1% (v/v) glycerol, 50 mM NaF, 1 mM Na3VO4, 1% (v/v) Triton X-100, with protease inhibitors. The following antibodies were used: AMPK (Cell Signaling, 2532, Cell Signaling Technologies, Danver, Mass., USA), pAMPK (Cell Signaling, 2535), ACC (Cell Signaling, 3676), pACC (Cell Signaling, 11818), Actin (Sigma, A1978). Antibodies for Axin 2, c-Myc and Cyclin D1 have been described previously. ATP analysis: Cells growing in 12-well plates were treated with DMSO or inhibitors in DMSO solution and lysed by adding 1 mL boiling doubly distilled water. Supernatants were analyzed by luminescence using ATP Determination Kit (Invitrogen, A22066; Thermo Fisher Scientific, Waltham, Mass., USA).

[2] = test system: AMPK; assay: Western blot of AMPK (T172) and ACC (S79) phosphorylation in CRC cells; format: cell-based, human; conditions: for AMPK activation: concentration not given; for ACC (S79 phosphorylation) / AMPK activity (T172 phosphorylation): 3 μM
Description: as §1

[3] = test system: Wnt signaling; assay: Wnt reporter assay, stable HEK293T cell line containing TOPFlash reporter, LiCl-activated; format: cell-based, human
Excerpt: (§2) To identify novel Wnt regulators by high throughput screening, a stable HEK293T cell line containing the TOPFlash reporter was established. To identify Wnt inhibitors that targeted molecular events downstream of β-catenin, we treated these cells with lithium chloride to inhibit GSK3 and to stabilize β-catenin. […] We also validated the results by transient transfection of Super 8× TOPFlash or 8× FOPFlash into HEK293T cells. […] Since the results from the stable and transient transfection are compatible, we used stable cell lines for all of the other experiments.
(§3) Reporter assay. Wnt reporter assay and cell staining assay have been described previously. We subcloned Super 8×TOPFlash (provided by Professor Randall Moon, University of Washington) into the pGL4.83 [hRlucP/Puro] Vector and transfected it into HEK293T cells. A stable HEK293T cell line containing the TOPFlash reporter was established using puromycin selection. To screen Wnt inhibitors that block the downstream signaling transduction pathway of β-catenin, we treated the reporter cells with 25 mM LiCl to stabilize β-catenin and activate Wnt signaling. The potential Wnt inhibitors identified from screening were validated by transfecting TOPFlash or FOPFlash plus control renilla reporters into HEK293T cells, and then treating the cells with DMSO or testing compounds in DMSO solution. The Wnt signaling was activated by LiCl or Wnt3A treatment.

[4] = test system: DLD-1 cells; assay: Seahorse uncoupling assay (OCR) in DLD-1 cells; format: cell-based, human; conditions: for oxidative phosphorylation: data not shown
[5] = test system: mitochondrial ATP production; assay: Agilent Seahorse XF Real-Time ATP Rate Assay; format: cell-based, human
Description: Seahorse assay. Approximately 3×10^4 cells were seeded in XF96 Cell Culture microplate (80 μL of 3.75×10^5 cells/mL) for all experiments. On the next day, cell culture media were replaced with either Seahorse XF modified media with 25 mM glucose and 1 mM pyruvate. After media exchange, cells were treated with 1 μM of oligomycin A, 1.0 μM FCCP and mixture of 1.0 μM of rotenone and 1.0 μM of antimycin A in standard mitochondrial stress test conditions. To determine the uncoupler effects, FCCP was replaced with an equal volume of DMSO, or a compound to be tested in DMSO solution. ATP production rate was analyzed using Agilent Seahorse XF Real-Time ATP Rate Assay.

[6] = test system: purified mitochondria from mouse liver; assay: Uncoupling assay (OCR) using purified mitochondria from mouse livers; format: biochemical
Description: All the steps were carried out at 4° C. or on ice. After mice were euthanized with CO2 followed by rapid decapitation, whole liver was quickly dissected out on a cold block and homogenized using a Teflon-glass dounce homogenizer containing isolation buffer (215 mM mannitol, 75 mM sucrose, 0.1% BSA, 20 mM HEPES, 1 mM EGTA, adjusted to pH 7.2 with KOH). The homogenate was transferred to a 2 mL-microcentrifuge tube and spun at 1,300×g for 3 min. The supernatant was transferred to a fresh 2 mL-microcentrifuge tube and spun at 13,000×g for 10 min. The supernatant was discarded, and the crude mitochondrial pellet was resuspended in a 1.5 mL-microcentrifuge tubes and pelleted again at 10,000×g for 10 min. The supernatant was discarded, and the mitochondrial pellets were resuspended in isolation buffer to obtain an approximate concentration ≥10 mg/mL of mitochondria. The absolute protein concentration was determined using a bicinchoninic acid (BCA) protein assay kit (Pierce, Cat #23,227) by recording absorbance at 560 nm on a Biotek Synergy HT plate reader (Winooski, Vt., USA).
Mitochondrial Bioenergetics Measurements. Mitochondrial bioenergetic measurements were carried out using a Seahorse XFe96 Extracellular Flux Analyzer (Agilent Technologies, Santa Clara, Calif., USA) to measure oxygen consumption rate (OCR) during various states of respiration. The OCR were measured in the presence of different substrates, inhibitors and uncouplers of the electron transport chain using previous methods with slight modifications. The stocks used for the assays were 500 mM pyruvate, 250 mM malate, and 30 mM adenosine diphosphate (ADP), and 1 M succinate (pH for all was adjusted to 7.2). […] Stock solutions of FH535, Y3, FH535-M, and Y3-M were prepared at 5 mM in 100% DMSO. As per the instructions from XFe96 Extracellular Flux kit, the sensor cartridge was hydrated with water and kept at 37° C. overnight before the experiment. One hour before the assay was conducted, water was removed from assay plates and XF calibrant was added before re-incubation. The injection ports A to D of the sensor cartridge were loaded with 25 μL of different combinations of the above substrates/inhibitors/uncouplers as follows. Before loading, the stocks were diluted appropriately in the respiration buffer (RB) (125 mM KCl, 0.1% BSA, 20 mM HEPES, 2 mM MgCl2, and 2.5 mM KH2PO4; pH 7.2) to get the final concentrations in the respiration chamber of 5 μM pyruvate, 2.5 μM malate, 10 μM of succinate and 1 μM ADP (via Port A), 1 μM oligomycin A (via Port B), 4 μM FCCP or 5 μM/1 μM FH535 or 5 μM/1 μM Y3 or 5 μM/1 μM FH535-M or 5 μM/1 μM Y3-M (via Port C) and 0.1 μM antimycin A (via Port D) starting with the initial volume of 175 μL RB in the chamber and diluting it to 9×, 10×, 11× and 12× with every injection through ports A to D, respectively. Once loaded, the sensor cartridge was placed into the Seahorse XFe96 Flux Analyzer for automated calibration. Seahorse Standard XFe96 assay plates were used for loading mitochondria. Initially total mitochondria were diluted to 6 μg/30 μL in RB and 30 μL was loaded in each well resulting in 6 μg mitochondria/well. The assay plates were centrifuged at 3,000 rpm for 4 min at 4° C. to adhere liver mitochondria at the bottom of the wells. After centrifugation, 145 μL RB (pre-incubated to 37° C.) was added without disturbing the mitochondrial layer to obtain a final volume of 175 μL per well. […]

[7] = test system: Wnt target genes; assay: Western blot of Wnt signaling components and downstream targets in CRC cell lines; format: cell-based, human; conditions: three CRC cell lines
Description: as §1

[8] = test system: LS174T and DLD-1 CRC cells; assay: Cell proliferation assay in colon cancer cells; format: cell-based, human
Description: Cell culture. LS174T colon cancer cells were cultured in EMEM (ATCC, 30-2003) containing 10% (v/v) Fetal Bovine Serum (Sigma F0926, Sigma Aldrich Corp., St. Louis, Mo., USA). The DLD-1, SW480 and SW620 colon cancer cells were cultured in DMEM (Sigma D6429) containing 10% (v/v) Fetal Bovine Serum (Sigma, F0926). For proliferation assays, cells (3.5×10^4 cells per well) were split into 12-well plates. After 24 h, 1 μL of each compound in DMSO solution were added to each well. DMSO was used as a control. Each experiment was done in triplicate. Cell viability and number were analyzed using the Vi-Cell XR Cell Viability Analyzer (Beckman Coulter, Indianapolis, Ind., USA).

[9] = test system: Wnt signaling; assay: Transient transfection of Super 8× TOPFlash or 8× FOPFlash into HEK293T cells; format: cell-based, human
Excerpt: as §2
as §3, with “The Wnt signaling was activated by LiCl or Wnt3A treatment.” left out

[10] = test system: mitochondrial membrane potential; assay: Mitochondria membrane potential assay (TMRM staining); format: cell-based, human; conditions: FTU-11 at 3 μM
Description: Mitochondria Membrane potential assay: DLD-1 and LS174T cells were plated onto 24-well plates and maintained in DMEM (DLD-1) and RPMI1640 (LS174T) with 10% (v/v) (DLD-1) and 5% (v/v) (LS174T) serum for one day. The cells were treated with DMSO or a testing compound in DMSO solution for 2 h, followed by staining with 100 nM tetramethylrhodamine methyl ester perchlorate (TMRM) (Cayman Chemical Company, MI, USA) for 15 min. Cells were rinsed once with PBS and then observed under fluorescence microscopy at 568 nm.

Molecule: O=CC[C@@H](O)[C@H](O)[C@H](O)CO [2-DG, 2-deoxy-D-glucose]
- ATP levels [1]: reduced ATP levels
- AMPK activation [2]: activated AMPK
- inhibition of Wnt signaling ([3]; concentration not given): inhibited Wnt signaling

Molecule: N#Cc1c(O)c2c(-c3ccc(-c4ccccc4O)cc3)csc2[nH]c1=O [A769662, 4-hydroxy-3-(2′-hydroxy-[1,1′-biphenyl]-4-yl)-6-oxo-6,7-dihydrothieno[2,3-b]pyridine-5-carbonitrile, reference compound]
- AMPK activity (ACC S79 phosphorylation) ([2]; without affecting AMPK phosphorylation): Increased AMPK activity
- inhibition of Wnt signaling ([3]; 10 μM): did not inhibit Wnt signaling

Molecule: c1cc(-c2cnn3cc(-c4ccc(OCCN5CCOCC5)cc4)cnc23)ccn1 [Compound C, 4-(2-(4-(3-(pyridin-4-yl)pyrazolo[1,5-a]pyrimidin-6-yl)phenoxy)ethyl)morpholine, reference compound]
- urea-induced AMPK phosphorylation and ACC phosphorylation ([2]; 5 μM): decreased
- rescue of Wnt signaling inhibited by FTU-11 (3 μM) and FDN-4E (3 μM) ([3]; 5 μM): no effect

Molecule: N#CC(C#N)=NNc1ccc(OC(F)(F)F)cc1 [FCCP, N-(4-(trifluoromethoxy)phenyl)carbonohydrazonoyl dicyanide, reference compound]
- uncoupling: OCR inhibited by oligomycin ([4]; 1 μM, control): increased OCR inhibited by oligomycin
- rate of ATP production in mitochondria ([5]; 1 μM, control): decreased the rates of ATP production in mitochondria
- AMPK activation [2]: strongly activated AMPK
- inhibition of Wnt signaling ([3]; concentration not given): inhibited Wnt signaling
- uncoupling: OCR blocked by oligomycin ([6]; control, 1 μM): rescued

Molecule: O=C(Nc1ccc(C(F)(F)F)cc1)Nc1cc(F)c(F)c(F)c1 [FDN-4E, 1-(4-(trifluoromethyl)phenyl)-3-(3,4,5-trifluorophenyl)urea]
- ACC (S79 phosphorylation) [2]: inhibited ACC
- AMPK activity (T172 phosphorylation) [2]: increased AMPK activity
- Wnt target genes [7]: inhibited Wnt target genes
- inhibition of Wnt signaling ([3]; concentration not given): inhibited Wnt signaling
- proliferation of colon cancer cells [8]: inhibited the proliferation of colon cancer cells at sub-micromolar concentrations
- TOPFlash and FOPFlash activity [9]: inhibited TOPFlash but not FOPFlash activity

Molecule: Cc1cc([N+](=O)[O-])ccc1N(C)S(=O)(=O)c1cc(Cl)ccc1Cl [FH535-M, 2,5-dichloro-N-methyl-N-(2-methyl-4-nitrophenyl)benzenesulfonamide]
- uncoupling: OCR inhibited by oligomycin ([4]; testing compound 3 μM): no longer functioned as a mitochondrial uncoupler
- AMPK activity (T172 phosphorylation) [2]: lost activities
- inhibition of Wnt signaling ([3]; 3 μM): lost activities
- uncoupling: OCR blocked by oligomycin ([6]; 5 μM/1 μM): inactive

Molecule: O=C(Nc1nnc(C(F)(F)F)s1)NC(CC(F)(F)F)(C(F)(F)F)C(F)(F)F [FTU-11, 1-(1,1,1,4,4,4-hexafluoro-2-(trifluoromethyl)butan-2-yl)-3-(5-(trifluoromethyl)-1,3,4-thiadiazol-2-yl)urea]
- uncoupling: OCR inhibited by oligomycin ([4]; testing compound 3 μM): increased OCR inhibited by oligomycin
- mitochondrial membrane potential [10]: reduced mitochondrial membrane potential
- mitochondrial membrane potential ([10]; listed as FTC-11): significantly reduced the membrane potential of mitochondria
- rate of ATP production in mitochondria ([5]; 3 μM): decreased the rates of ATP production in mitochondria
- ACC (S79 phosphorylation) [2]: inhibited ACC
- AMPK activity (T172 phosphorylation) [2]: increased AMPK activity
- AMPK activation [2]: equal in potency to FDN-4E
- Wnt target genes [7]: inhibited Wnt target genes
- concentration at which Wnt signaling was inhibited ([3]; 96-well assay using stable cell line): 0.5 mM
- proliferation of colon cancer cells [8]: inhibited the proliferation of colon cancer cells at sub-micromolar concentrations
- TOPFlash and FOPFlash activity [9]: inhibited TOPFlash but not FOPFlash activity

Molecule: O=C1[C@H](Cc2ccc(O)cc2)N2C(=O)CCN(C(=O)NCc3ccccc3)[C@H]2CN1Cc1cccc2ccccc12 [ICG-001, (6S,9aS)—N-benzyl-6-(4-hydroxybenzyl)-8-(naphthalen-1-ylmethyl)-4,7-dioxohexahydro-2H-pyrazino[1,2-c]pyrimidine-1(6H)-carboxamide, reference compound]
- AMPK activation [2]: no effect on AMPK
- inhibition of Wnt signaling ([3]; concentration not given): only inhibited Wnt signaling

Molecule: CN(c1ccc([N+](=O)[O-])c2ccccc12)S(=O)(=O)c1cc(Cl)ccc1Cl [Y3-M, 2,5-dichloro-N-methyl-N-(4-nitronaphthalen-1-yl)benzenesulfonamide]
- uncoupling: OCR inhibited by oligomycin ([4]; testing compound 3 μM): failed as a mitochondrial uncoupler
- AMPK activity (T172 phosphorylation) [2]: lost activities
- inhibition of Wnt signaling ([3]; 3 μM): lost activities
- uncoupling: OCR blocked by oligomycin ([6]; 5 μM/1 μM): inactive

Molecule: CC[C@H]1/C=C/C=C/C[C@@H](C)[C@H](O)[C@@](C)(O)C(=O)[C@@H](C)[C@H](O)[C@@H](C)C(=O)[C@@H](C)[C@H](O)[C@@H](C)/C=C/C(=O)O[C@@H]2[C@H](C)[C@H](CC1)O[C@]1(CC[C@H](C)[C@H](C[C@@H](C)O)O1)[C@H]2C [oligomycin, reference compound]
- oxidative phosphorylation [4]: inhibited oxidative phosphorylation
- AMPK activation [2]: activated AMPK
- inhibition of Wnt signaling ([3]; concentration not given): inhibited Wnt signaling

Molecule: C=C(C)[C@H]1Cc2c(ccc3c2O[C@@H]2COc4cc(OC)c(OC)cc4[C@@H]2C3=O)O1 [rotenone, reference compound]
- oxidative phosphorylation [4]: inhibited oxidative phosphorylation
- AMPK activation [2]: activated AMPK
- inhibition of Wnt signaling ([3]; concentration not given): inhibited Wnt signaling

Molecule: antimycin [reference compound]
- oxidative phosphorylation [4]: inhibited oxidative phosphorylation
- AMPK activation [2]: activated AMPK
- inhibition of Wnt signaling ([3]; concentration not given): inhibited Wnt signaling
